Data taken from patent US20250034079A1, “PROCESS FOR RECOVERING AMINOBENZOIC ACID FROM AN AQUEOUS MOTHER LIQUOR” (Covestro Deutschland AG, priority 2021, published 2025).
Converted amounts (≈) assume the structure as drawn.

Experiments:
physchem = details: for solubility: water; for Solubility in water at RT: solubility of the extractant
Description: (§1) The remaining mother liquor was extracted in one stage with various solvents (step (C)). […] The extraction was conducted at 30° C. The experiments were assessed by ascertaining the partition coefficients K (=ratio of the ortho-aminobenzoic acid [oAB] concentration in g/L in the organic phase [ORG=first alcoholic phase] to the aqueous phase [AQ=first aqueous phase]), the solubilities of the extractant in the aqueous phase after the extraction (=first aqueous phase) and—in four cases—the proportion by mass of organic secondary components (SC) in the organic extract phase (=first alcoholic phase) based on the totality of the organic secondary components in the two phases (=m(SC)ORG/m(SC)TOT). For this purpose, a separation was conducted by HPLC; organic impurities that elute earlier than ortho-aminobenzoic acid are referred to collectively as polar secondary components, and organic impurities that elute later than ortho-aminobenzoic acid as nonpolar secondary components.

[1] = One-stage extraction of ortho-aminobenzoic acid from crystallization mother liquor with various extractants (partition coefficient); details: pH 3.5±0.2, 8.7 g/L oAB, phase ratio organic to aqueous 0.5, 30° C.
Description: For the evaluation of the distribution of a component between two phases, the two phases were analyzed by HPLC-MS (with identical sample preparation and method). The coefficients of distribution were then determined as the ratio of peak areas for the same retention time.
as §1

SMILES: CCCCCCCCCCO [1-Decanol]
- solubility (physchem): 40 µg/mL (≈ 253 µM)

SMILES: CC1CCCC1 [Methylcyclopentane]
- Solubility in water at RT (physchem): insoluble

SMILES: CCCCOC(C)=O [Butyl acetate]
- solubility (physchem): ~6000 µg/mL

SMILES: CCC(C)=O [2-Butanone]
- K = c(oAB)ORG/c(oAB)AQ (partition coefficient of ortho-aminobenzoic acid, organic to aqueous phase) [1]: 26.12

SMILES: CCCCCCCC/C=C\CCCCCCCCO [Oleyl alcohol]
- Solubility in water at RT (physchem): insoluble
